# Source: PMC5577610, “Nine New Triterpene Glycosides, Magnumosides A1–A4, B1, B2, C1, C2 and C4, from the Vietnamese Sea Cucumber Neothyonidium (=Massinium) magnum: Structures and Activities against Tumor Cells Independently and in Synergy with Radioactive Irradiation” (Marine Drugs, 2017)
# Structures can show the parent of a compound that is named as a salt.
# Tests used:
# Type in all cases: cell-based
# mouse erythrocytes = details: for Hemolytic action (in words): mouse erythrocytes
# Description: The erythrocytes were washed thrice with 0.9% NaCl, centrifuged (450 g) on a centrifuge […] (Heraeus, Hanau, Germany) for 5 min followed by re-suspending in phosphate-buffered saline (PBS), pH 7.2-7.4. […] ED50 was calculated using SigmaPlot 3.02 software (Jandel Scientific, San Rafael, CA, USA). […] The erythrocyte suspension in phosphate-buffered saline, pH 7.2-7.4 (PBS) with 20 μL of the solvent without a tested compound was used as negative control.
# [1] = Cytotoxic activity (MTT) against mouse spleenocytes; details: CD-1, mouse
# Description: (§1) The spleenocytes from CD-1 line mice were used. The spleen was isolated from mice and homogenized. The spleenocytes were washed thrice and resuspended with RPMI-1640 medium contained gentamicine 8 μg/mL (Biolot, Saint Petersburg, Russia). The museum tetraploid strain of murine ascites Ehrlich carcinoma cells from the All-Russian cancer center RAMS (Moscow, Russia) was used. The cells of the ascites Ehrlich carcinoma were separated from ascites, which were collected on day 7 after inoculation in mouse CD-1 line. The cells were washed of ascites thrice and then resuspended in liquid media DMEM with L-Glutamine (Biolot, Saint Petersburg, Russia).
# (§2) The solutions of tested substances in different concentrations (20 µL) and cell suspension (200 µL) were added in wells of 96-well plate and incubated over night at 37 °C and 5% CO2. After incubation the cells were sedimented by centrifugation, 200 µL of medium from each well were collected and 100 µL of pure medium were added. Then 10 µL of MTT solution […] (Sigma, St. Louis, MO, USA) were added in each well. Plate was incubated 4 h, after that 100 µL SDS-HCl were added to each well and plate was incubated at 37 °C 4–18 h. Optical density was measured at 570 nm and 630–690 nm. The activity of the substances was calculated as the ratio of the dead cells to general cells amount (ED50). Typicoside A1 [28] and cucumarioside A2-2 [11] were used as positive controls.
# mouse spleenocytes = assay: as above; details: up to the ultimate investigated concentration of 100 μM
# Description: as §1, §2
# [2] = Cytotoxic activity (MTT) against the ascites form of mouse Ehrlich carcinoma cells; details: mouse
# Description: as §1, §2
# [3] = tested on: human colorectal adenocarcinoma DLD-1 cells; assay: Cytotoxicity against DLD-1 cells (MTS assay); details: for Cytotoxic effect against DLD-1 cells (in words): 0–100 µM, 24 h; for IC50: Homo sapiens, DLD-1, read-out: IC50 (50% reduction in cell viability), DLD-1 cells, 24 h, 0–100 µM
# Description: (§3) Human colorectal adenocarcinoma cells DLD-1 were cultured in RPMI-1640 medium. Culture media was supplemented with 10% fetal bovine serum (FBS) and penicillin—streptomycin solution. Cells were maintained in a sterile environment and kept in an incubator at 5% CO2 and 37 °C to promote growth. DLD-1 cells were sub-cultured every 3–4 days by their rinsing with phosphate buffered saline (PBS), adding trypsin to detach the cells from the tissue culture flask, and transferring 10–20% of the harvested cells to a new flask containing fresh growth media.
# DLD-1 cells (1.0 × 10^4/well) were seeded in 96-well plates for 24 h at 37 °C in 5% CO2 incubator. The cells were treated with the compounds 1–9 at concentrations range from 0 to 100 µM for additional 24 h. Subsequently, cells were incubated with 15 µL MTS reagent for 3 h, and the absorbance of each well was measured at 490/630 nm using microplate reader “Power Wave XS” (Bio Tek, Winooski, VT, USA). All the experiments were repeated three times, and the mean absorbance values were calculated. The results are expressed as the percentage of inhibition that produced a reduction in absorbance by compound’s treatment compared to the non-treated cells (control).
# [4] = tested on: human colorectal adenocarcinoma DLD-1 cells; assay: Soft agar assay, colony formation of DLD-1 cells; details: 14 days; for Reduction of colonies size: 10 µM; for inhibition at 10 µM: Homo sapiens, DLD-1, 336 h, read-out: Inhibition of spontaneous colony formation (number of colonies)
# Description: as §3
# DLD-1 cells (8.0 × 10^3) were seeded in 6-well plate and treated with the 3, 7–9 (10 µM) in 1 mL of 0.3% Basal Medium Eagle (BME) agar containing 10% FBS, 2 mM L-glutamine, and 25 µg/mL gentamicin. The cultures were maintained at 37 °C in a 5% CO2 incubator for 14 days, and the cell’s colonies were scored using a microscope “Motic AE 20” (Scientific Instrument Company, Campbell, CA, USA) and the Motic Image Plus computer program (Scientific Instrument Company, Campbell, CA, USA).
# [5] = tested on: human colorectal adenocarcinoma DLD-1 cells; assay: Radioactive irradiation plus compounds, DLD-1 cell proliferation (MTS); details: compounds 2 µM, radiation 4 Gy, 96 h, MTS assay, read-out: Increase of the inhibitory effect from radiation on proliferation
# Description: Figure 7 The effect of radioactive irradiation and a combination of radioactive irradiation and the compounds 3, 7–9 on DLD-1 cancer cell proliferation. DLD-1 cells (8.0 × 10^3) were treated with radiation 4 Gy and the compounds 3, 7–9 (2 µM) for 96 h. Cell viability was estimated using the MTS assay. Data are represented as the mean ± SD as determined from triplicate experiments. A Student’s t-test was used to evaluate the data with the following significance levels: * p < 0.05, ** p < 0.01.
# DLD-1 cells (8 × 10^3) cells were seeded in 96-well plates in […] of RPMI-1640/10%FBS medium at 37 °C in a 5% CO2 incubator for 24 h. Then the cells were treated with 2 µM of 3, 7–9 for additional 24, 48, 72 or 96 h at 37 °C in a 5% CO2 atmosphere. The reaction was terminated by adding MTS reagent to each well as described in the Section 3.5.5.
# Irradiation was delivered at room temperature using single doses of X-ray system XPERT 80 (KUB Technologies, Inc, Milford, CT, USA). The doses were from 4 to 8 Gy for colony formation assay. The absorber dose was measured using X-ray radiation clinical dosimeter DRK-1 (Akselbant, Moscow, Russia).
# DLD-1 cells (5.0 × 10^5) were plated at 60 mm dishes and incubated for 24 h. After the incubation, the cells were cultured in the presence or absence of 2 μM 3, 7–9 for additional 24 h before irradiation at the dose of 4 Gy. Immediately after irradiation, cells were returned to the incubator for recovery. Three hour later, the cells were harvested and used for soft agar assay or proliferation assay to establish the synergism of radioactive irradiation and investigated compounds effects on colony formation or proliferation of tested cells.
Compound,Hemolytic action (in words) (mouse erythrocytes),IC50 [1] [µM],Cytotoxic action against spleenocytes (in words) (mouse spleenocytes),IC50 [2] [µM],Cytotoxic effect against DLD-1 cells (in words) [3],IC50 [3] [µM],Reduction of colonies size [4],inhibition at 10 µM [4] [%],inhibition at 2 µM [5] [%],"Hemolysis of cells (mouse erythrocytes; concentration 1%, positive control) [%]"
"CC1OC(OC2C(OC3CCC4(C)C5CCC67C(=O)OC(CC6(C)C5=CCC4C3(C)C)C7C3(C)CCC(C(C)(C)O)O3)OCC(OS(=O)(=O)O)C2O)C(O)C(O)C1O [Compound 1, 3β-O-[β-D-quinovopyranosyl-(1→2)-4-O-sodium sulfate-β-D-xylopyranosyl]-9βH,20(S),24(S)-epoxy-25-hydroxylanosta-7-ene-18(16)-lactone]",inactive,> 100,inactive,> 100,did not possessed cytotoxic effect,> 100,–,–,–,–
"C=C(C)C(O)CCC(C)(O)C1C2CC3(C)C4=CCC5C(C)(C)C(OC6OCC(OS(=O)(=O)O)C(O)C6OC6OC(C)C(O)C(O)C6O)CCC5(C)C4CCC13C(=O)O2 [Compound 2, 3β-O-[β-D-quinovopyranosyl-(1→2)-4-O-sodium sulfate-β-D-xylopyranosyl]-9βH,20(S),24(S)-dihydroxylanosta-7,25-diene-18(16)-lactone]",moderate hemolytic activity,94.2 ± 1.18,–,> 100,did not possessed cytotoxic effect,> 100,–,–,–,–
"C=C(C)CCCC(C)(O)C1C2CC3(C)C4=CCC5C(C)(C)C(OC6OCC(OS(=O)(=O)O)C(O)C6OC6OC(C)C(O)C(O)C6O)CCC5(C)C4CCC13C(=O)O2 [Compound 3, 3β-O-[β-D-quinovopyranosyl-(1→2)-4-O-sodium sulfate-β-D-xylopyranosyl]-9βH,20(S)-hydroxylanosta-7,25-diene-18(16)-lactone]",–,19.2 ± 0.03,–,18.95 ± 0.03,–,30.3,49%,22,> 30,–
"CC(C)=CCCC(C)(O)C1C2CC3(C)C4=CCC5C(C)(C)C(OC6OCC(OS(=O)(=O)O)C(O)C6OC6OC(C)C(O)C(O)C6O)CCC5(C)C4CCC13C(=O)O2 [Compound 4, 3β-O-[β-D-quinovopyranosyl-(1→2)-4-O-sodium sulfate-β-D-xylopyranosyl]-9βH,20(S)-hydroxylanosta-7,24-diene-18(16)-lactone]",–,37.6,–,28.4 ± 0.42,–,> 100,–,–,–,–
"COC1C(O)C(CO)OC(OC2COC(OC3C(C)OC(OC4C(OC5CCC6(C)C7CCC89C(=O)OC(CC8(C)C7=CCC6C5(C)C)C9C(C)(O)CC=CC(C)(C)O)OCC(OS(=O)(=O)O)C4O)C(O)C3O)C(O)C2O)C1O [Compound 5, 3β-O-[3-O-methyl-β-D-glucopyranosyl-(1→3)-β-D-xylopyranosyl-(1→4)-β-D-quinovopyranosyl-(1→2)-4-O-sodium sulfate-β-D-xylopyranosyl]-9βH,20(S),25-dihydroxylanosta-7,23E-diene-18(16)-lactone]",moderate hemolytic activity,> 100,–,> 100,–,> 100,–,–,–,–
"C=C(C)C(O)CCC(C)(O)C1C2CC3(C)C4=CCC5C(C)(C)C(OC6OCC(OS(=O)(=O)O)C(O)C6OC6OC(C)C(OC7OCC(OC8OC(CO)C(O)C(OC)C8O)C(O)C7O)C(O)C6O)CCC5(C)C4CCC13C(=O)O2 [Compound 6, 3β-O-[3-O-methyl-β-D-glucopyranosyl-(1→3)-β-D-xylopyranosyl-(1→4)-β-D-quinovopyranosyl-(1→2)-4-O-sodium sulfate-β-D-xylopyranosyl]-9βH,20(S),24(S)-dihydroxylanosta-7,25-diene-18(16)-lactone]",moderate hemolytic activity,> 100,–,> 100,–,> 100,–,–,–,–
"COC1C(O)C(COS(=O)(=O)O)OC(OC2COC(OC3C(C)OC(OC4C(OC5CCC6(C)C7CCC89C(=O)OC(CC8(C)C7=CCC6C5(C)C)C9C(C)(O)CC=CC(C)(C)O)OCC(OS(=O)(=O)O)C4O)C(O)C3O)C(O)C2O)C1O [Compound 7, 3β-O-[6-O-sodium sulfate-3-O-methyl-β-D-glucopyranosyl-(1→3)-β-D-xylopyranosyl-(1→4)-β-D-quinovopyranosyl-(1→2)-4-O-sodium sulfate-β-D-xylopyranosyl]-9βH,20(S),25-dihydroxylanosta-7,23E-diene-18(16)-lactone]",significant effects,8.97 ± 0.04,–,18.7,–,32.9,43%,26,–,–
"C=C(C)C(O)CCC(C)(O)C1C2CC3(C)C4=CCC5C(C)(C)C(OC6OCC(OS(=O)(=O)O)C(O)C6OC6OC(C)C(OC7OCC(OC8OC(COS(=O)(=O)O)C(O)C(OC)C8O)C(O)C7O)C(O)C6O)CCC5(C)C4CCC13C(=O)O2 [Compound 8, 3β-O-[6-O-sodium sulfate-3-O-methyl-β-D-glucopyranosyl-(1→3)-β-D-xylopyranosyl-(1→4)-β-D-quinovopyranosyl-(1→2)-4-O-sodium sulfate-β-D-xylopyranosyl]-9βH,20(S),24(S)-dihydroxylanosta-7,25-diene-18(16)-lactone]",significant effects,17.3 ± 0.43,–,37.5,–,37.1,less than 20%,< 20,> 30,–
"COC1C(O)C(COS(=O)(=O)O)OC(OC2COC(OC3C(C)OC(OC4C(OC5CCC6(C)C7CCC89C(=O)OC(CC8(C)C7=CCC6C5(C)C)C9C(C)(O)CCC=C(C)C)OCC(OS(=O)(=O)O)C4O)C(O)C3O)C(O)C2O)C1O [Compound 9, 3β-O-[6-O-sodium sulfate-3-O-methyl-β-D-glucopyranosyl-(1→3)-β-D-xylopyranosyl-(1→4)-β-D-quinovopyranosyl-(1→2)-4-O-sodium sulfate-β-D-xylopyranosyl]-9βH,20(S)-hydroxylanosta-7,24-diene-18(16)-lactone]",–,12.2 ± 0.33,–,35.06 ± 0.18,–,33.9,less than 20%,< 20,45,–
Triton X-100 [reference compound],–,–,–,–,–,–,–,–,–,100
